# Experimental data taken from ChEMBL document CHEMBL1201862, “PubChem BioAssay data set” (2004).
# Active and inactive are the calls of the source.
# Experiments:
# [1] = target: T1, Corticotropin-releasing factor receptor 2/Corticotropin-releasing factor-binding protein (Homo sapiens, UniProt P24387+Q13324); assay: activators of CRF receptor 2 with binding protein – uHTS hits, confirmation (AID 602473); format: functional; conditions: read-out: EC50_Mean
# T1 sequence (Q13324 whole entry): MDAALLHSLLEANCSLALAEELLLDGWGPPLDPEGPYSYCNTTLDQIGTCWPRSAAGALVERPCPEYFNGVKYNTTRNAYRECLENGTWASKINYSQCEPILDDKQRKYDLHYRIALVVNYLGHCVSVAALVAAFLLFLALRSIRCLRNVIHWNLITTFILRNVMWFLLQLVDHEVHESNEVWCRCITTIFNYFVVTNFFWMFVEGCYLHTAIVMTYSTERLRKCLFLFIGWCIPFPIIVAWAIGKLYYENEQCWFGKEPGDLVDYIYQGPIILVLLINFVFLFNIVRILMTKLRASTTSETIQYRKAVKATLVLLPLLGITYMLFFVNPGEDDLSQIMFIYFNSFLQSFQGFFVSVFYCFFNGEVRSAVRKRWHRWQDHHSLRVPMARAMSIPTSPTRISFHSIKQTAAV
# T1 sequence (P24387 whole entry): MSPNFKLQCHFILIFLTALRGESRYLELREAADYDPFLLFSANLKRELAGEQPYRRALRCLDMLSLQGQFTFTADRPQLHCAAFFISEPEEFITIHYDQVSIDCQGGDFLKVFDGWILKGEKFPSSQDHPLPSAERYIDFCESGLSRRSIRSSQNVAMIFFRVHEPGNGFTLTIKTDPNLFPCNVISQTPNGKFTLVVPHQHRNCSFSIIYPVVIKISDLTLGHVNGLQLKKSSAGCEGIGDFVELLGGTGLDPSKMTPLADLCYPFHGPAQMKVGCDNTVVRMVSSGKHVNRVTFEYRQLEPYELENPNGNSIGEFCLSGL
# [2] = Luminescence Cell-Based Dose Confirmation to Identify Activators of 5'UTR Stem-Loop Driven Alpha-Synuclein mRNA Translation in H4 Neuroglioblastoma Cells. [Related pubchem assays: 1829 (Project Summary), 1814 (Primary HTS)]; format: functional
# H4 = assay: Luminescence Cell-Based Dose Response HTS to Identify Activators of 5'UTR Stem-Loop Driven Prion Protein mRNA Translation in H4 Neuroglioblastoma Cells. [Related pubchem assays: 1829 (Project Summary), 1814 (Primary HTS)]; format: functional; conditions: Homo sapiens
# [3] = Luminescence Cell-Based Dose Response HTS to Identify Activators of Luciferase Translation or Activity in H4 […] Cells. [Related pubchem assays: 1829 (Project Summary), 1814 (Primary HTS)]; format: functional
# [4] = Luminescence Cell-Based Dose Response to Identify Activators of Luciferase Translation or Activity in H4-C Neuroglioblastoma Cells. [Related pubchem assays: 1829 (Project Summary), 1814 (Primary HTS)]; format: functional
# [5] = Luminescence Cell-Based Dose Response to Identify Activators of 5'UTR Stem-Loop Driven Prion Protein mRNA Translation in H4-C Neuroglioblastoma Cells. [Related pubchem assays: 1829 (Project Summary), 1814 (Primary HTS)]; format: functional
# [6] = target: T2, Zinc finger protein mex-5 (Caenorhabditis elegans, UniProt Q9XUB2); assay: MEX-5/TCR-2 RNA interaction inhibitors, dose response, biochemical, C. elegans, fluorescence polarization (AID 1960)
# T2 sequence (Q9XUB2 whole entry): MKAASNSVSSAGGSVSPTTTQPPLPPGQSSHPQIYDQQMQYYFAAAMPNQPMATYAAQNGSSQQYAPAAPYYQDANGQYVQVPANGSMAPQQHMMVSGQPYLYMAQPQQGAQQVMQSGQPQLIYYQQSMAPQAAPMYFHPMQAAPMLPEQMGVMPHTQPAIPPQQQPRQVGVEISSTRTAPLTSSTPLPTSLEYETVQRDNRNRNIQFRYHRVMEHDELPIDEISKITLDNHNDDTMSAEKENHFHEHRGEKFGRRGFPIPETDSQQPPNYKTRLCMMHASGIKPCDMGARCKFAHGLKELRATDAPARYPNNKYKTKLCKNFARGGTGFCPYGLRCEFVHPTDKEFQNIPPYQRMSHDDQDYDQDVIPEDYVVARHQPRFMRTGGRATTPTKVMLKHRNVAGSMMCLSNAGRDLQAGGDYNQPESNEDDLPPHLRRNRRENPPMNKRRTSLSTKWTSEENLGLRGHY
# Genome polyprotein = Genome polyprotein (dengue virus type 2, UniProt P29990); assay: Dengue-2 NS5 methyltransferase inhibitors, primary screen, biochemical, confirmation dose response (AID 588689); format: functional
# Chain of Genome polyprotein (P29990 2492-3391 limits assumed): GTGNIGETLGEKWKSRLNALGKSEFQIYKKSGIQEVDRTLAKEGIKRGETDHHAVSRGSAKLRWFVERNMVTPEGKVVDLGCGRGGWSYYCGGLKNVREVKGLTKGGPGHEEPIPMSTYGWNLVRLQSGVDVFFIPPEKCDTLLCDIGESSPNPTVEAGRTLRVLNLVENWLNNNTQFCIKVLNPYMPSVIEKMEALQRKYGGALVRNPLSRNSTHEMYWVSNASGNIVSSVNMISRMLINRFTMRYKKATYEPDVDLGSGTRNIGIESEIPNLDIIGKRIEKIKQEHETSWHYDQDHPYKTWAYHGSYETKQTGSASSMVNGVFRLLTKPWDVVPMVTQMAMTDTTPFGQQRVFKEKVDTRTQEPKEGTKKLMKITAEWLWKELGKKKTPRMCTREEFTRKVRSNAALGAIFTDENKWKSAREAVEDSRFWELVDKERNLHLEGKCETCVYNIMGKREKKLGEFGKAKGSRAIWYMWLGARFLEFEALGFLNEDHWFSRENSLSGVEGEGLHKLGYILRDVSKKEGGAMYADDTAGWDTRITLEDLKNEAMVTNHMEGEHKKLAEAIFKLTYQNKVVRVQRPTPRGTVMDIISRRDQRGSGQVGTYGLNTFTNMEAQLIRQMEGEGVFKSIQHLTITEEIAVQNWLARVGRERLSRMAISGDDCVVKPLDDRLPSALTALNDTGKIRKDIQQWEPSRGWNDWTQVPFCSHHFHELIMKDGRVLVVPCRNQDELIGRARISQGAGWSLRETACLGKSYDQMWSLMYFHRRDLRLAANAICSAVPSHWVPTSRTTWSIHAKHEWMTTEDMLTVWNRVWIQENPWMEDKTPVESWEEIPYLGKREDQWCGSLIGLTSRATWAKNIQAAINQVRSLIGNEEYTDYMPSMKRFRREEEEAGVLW
# [7] = target: T3, RNA-binding protein pos-1 (Caenorhabditis elegans, UniProt G5EF15); assay: inhibitors of POS-1/mex-3 RNA binding, dose response, biochemical, fluorescence polarization (AID 1964);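 also: purified POS-1 fused to maltose binding protein made in E. coli; potency of compounds blocking POS-1 binding to fluorescent RNA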
# T3 sequence (G5EF15 whole entry): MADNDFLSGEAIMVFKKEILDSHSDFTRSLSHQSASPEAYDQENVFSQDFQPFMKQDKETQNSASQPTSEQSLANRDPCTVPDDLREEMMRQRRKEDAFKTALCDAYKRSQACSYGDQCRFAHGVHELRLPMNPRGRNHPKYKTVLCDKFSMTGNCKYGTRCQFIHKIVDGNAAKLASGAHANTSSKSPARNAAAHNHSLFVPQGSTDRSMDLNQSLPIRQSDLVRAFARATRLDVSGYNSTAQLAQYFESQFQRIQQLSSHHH
# [8] = target: Bifunctional protein GlmU (Mycobacterium tuberculosis, UniProt P9WMN3); assay: Inhibitors of Mycobacterial Glucosamine-1-phosphate acetyl transferase (GlmU). Secondary screen.; parameters: species or system Mycobacterium tuberculosis H37Rv
# Chain of Bifunctional protein GlmU (P9WMN3 whole entry): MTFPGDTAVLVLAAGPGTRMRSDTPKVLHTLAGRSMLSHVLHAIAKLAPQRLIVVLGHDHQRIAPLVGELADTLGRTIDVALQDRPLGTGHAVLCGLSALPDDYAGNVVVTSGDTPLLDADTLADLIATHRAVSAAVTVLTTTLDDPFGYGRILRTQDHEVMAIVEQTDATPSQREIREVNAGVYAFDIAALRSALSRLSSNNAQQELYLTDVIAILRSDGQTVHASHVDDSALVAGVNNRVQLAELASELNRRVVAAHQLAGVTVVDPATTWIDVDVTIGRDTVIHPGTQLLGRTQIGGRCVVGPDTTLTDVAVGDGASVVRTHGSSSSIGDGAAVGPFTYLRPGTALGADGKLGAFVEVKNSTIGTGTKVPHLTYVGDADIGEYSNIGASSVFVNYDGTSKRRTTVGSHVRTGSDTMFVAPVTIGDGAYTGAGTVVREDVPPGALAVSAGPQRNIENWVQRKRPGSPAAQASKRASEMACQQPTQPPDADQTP
# [9] = inhibitors of intracellular T. cruzi replication, confirmation, NIH3T3 host cells, beta-gal luminescence (AID 2044); format: functional, cell-based;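 also: intracellular parasites grown in NIH/3T3 mouse fibroblasts as host cells; luminescent beta-galactosidase reporter signal from transgenic T. cruzi replicating inside host cells; inhibitors lower the luminescence signal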
# [10] = cytotoxicity toward NIH3T3 fibroblasts, dose response, counter-screen, cell-based, ATP luminescence, mouse fibroblasts (AID 2010); format: functional;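 also: cells exposed to compound for about 90 hours before reading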
# [11] = Jurkat T cell cytotoxicity, dose response, cytotoxicity control for P. falciparum gametocyte viability project, luminescence (AID 1117277); format: functional, cell-based;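 also: potency reflects loss of cellular ATP meaning fewer viable cells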
# [12] = P. falciparum late gametocyte killing, dose response, luminescence (AID 1117278); format: functional, cell-based;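 also: gametocytes exposed to compound for 24 hours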
# Estrogen receptor = target: T4, Estrogen receptor (Homo sapiens, UniProt P03372);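 also: potency for inhibiting coactivator peptide recruitment to the receptor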
# T4 sequence (P03372 whole entry): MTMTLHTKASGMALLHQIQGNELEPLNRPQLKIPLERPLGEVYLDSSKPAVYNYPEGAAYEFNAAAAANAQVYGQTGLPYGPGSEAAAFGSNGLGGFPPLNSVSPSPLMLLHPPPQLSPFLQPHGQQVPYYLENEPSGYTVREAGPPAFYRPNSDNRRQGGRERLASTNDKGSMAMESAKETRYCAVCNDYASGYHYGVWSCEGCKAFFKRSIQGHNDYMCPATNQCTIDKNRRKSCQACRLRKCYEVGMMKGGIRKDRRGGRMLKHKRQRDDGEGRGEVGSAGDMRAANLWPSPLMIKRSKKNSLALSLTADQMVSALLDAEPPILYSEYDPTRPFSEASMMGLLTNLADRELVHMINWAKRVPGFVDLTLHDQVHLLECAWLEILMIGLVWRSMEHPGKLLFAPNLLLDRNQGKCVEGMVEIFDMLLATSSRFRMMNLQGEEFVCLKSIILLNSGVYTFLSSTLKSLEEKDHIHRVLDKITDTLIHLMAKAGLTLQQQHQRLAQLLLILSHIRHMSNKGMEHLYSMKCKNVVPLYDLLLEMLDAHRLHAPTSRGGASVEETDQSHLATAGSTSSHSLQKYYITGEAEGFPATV
# Protein Tat = Protein Tat (Human immunodeficiency virus type 1 group M subtype B (isolate HXB2)(HIV-1), UniProt P04608); format: functional;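 also: tat binding to TAR RNA read out by fluorescence polarization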
# Chain of Protein Tat (P04608 whole entry): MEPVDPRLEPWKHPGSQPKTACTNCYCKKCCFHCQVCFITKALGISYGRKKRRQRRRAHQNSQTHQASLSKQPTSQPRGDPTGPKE
# [13] = HEp-2 cell cytotoxicity, dose response, cytotoxicity control for RSV inhibitor project, HTS (AID 2410); format: functional; conditions: human respiratory syncytial virus
# [14] = inhibitors of Vif binding to APOBEC3G peptide, primary screen, biochemical, TR-FRET, GST-Vif 1-94, biotin-A3G peptide, dose response retest (AID 1117319); format: functional;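 also: TR-FRET signal of purified GST-Vif binding a biotinylated A3G peptide; inhibitors lower the FRET signal by blocking Vif and A3G binding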
# Cytochrome P450 2D6 = Cytochrome P450 2D6 (Homo sapiens, UniProt P10635);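 also: CYP2D6 member of a cytochrome P450 panel assay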
# Chain of Cytochrome P450 2D6 (P10635 whole entry): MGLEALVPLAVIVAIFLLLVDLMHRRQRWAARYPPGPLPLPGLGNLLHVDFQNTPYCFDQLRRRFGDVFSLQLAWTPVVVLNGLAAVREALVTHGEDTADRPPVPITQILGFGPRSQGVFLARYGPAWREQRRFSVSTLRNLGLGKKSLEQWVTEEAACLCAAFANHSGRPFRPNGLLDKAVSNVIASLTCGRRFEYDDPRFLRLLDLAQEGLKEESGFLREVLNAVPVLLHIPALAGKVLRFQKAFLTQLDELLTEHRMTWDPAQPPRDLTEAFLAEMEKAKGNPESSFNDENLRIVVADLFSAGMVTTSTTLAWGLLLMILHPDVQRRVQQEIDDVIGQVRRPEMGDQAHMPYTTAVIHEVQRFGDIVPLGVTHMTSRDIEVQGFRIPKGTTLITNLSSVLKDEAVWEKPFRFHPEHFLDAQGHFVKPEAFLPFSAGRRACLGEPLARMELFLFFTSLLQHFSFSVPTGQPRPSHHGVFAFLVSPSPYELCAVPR
# Cytochrome P450 3A4 = Cytochrome P450 3A4 (Homo sapiens, UniProt P08684);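 also: CYP3A4 tested as one member of a cytochrome P450 panel screen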
# Chain of Cytochrome P450 3A4 (P08684 whole entry): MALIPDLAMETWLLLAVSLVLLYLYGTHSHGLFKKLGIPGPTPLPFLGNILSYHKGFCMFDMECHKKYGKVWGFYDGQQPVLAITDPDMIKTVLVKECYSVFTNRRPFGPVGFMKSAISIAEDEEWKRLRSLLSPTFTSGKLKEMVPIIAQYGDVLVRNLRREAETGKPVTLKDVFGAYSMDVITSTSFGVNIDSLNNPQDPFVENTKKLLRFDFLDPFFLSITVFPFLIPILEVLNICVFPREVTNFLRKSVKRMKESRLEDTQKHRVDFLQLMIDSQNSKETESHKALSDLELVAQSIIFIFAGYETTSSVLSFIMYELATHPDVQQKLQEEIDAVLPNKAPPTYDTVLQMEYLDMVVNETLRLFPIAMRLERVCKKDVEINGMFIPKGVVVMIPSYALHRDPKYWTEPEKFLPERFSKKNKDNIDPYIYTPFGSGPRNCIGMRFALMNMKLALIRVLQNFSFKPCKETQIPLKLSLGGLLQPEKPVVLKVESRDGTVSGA
# [15] = cytotoxicity in HPDE-C7 cells, cell-based, fluorescence, HTS (AID 430); format: functional; conditions: Homo sapiens
# [16] = cytotoxicity in KRAS-transformed pancreatic duct cells, primary screen, cell-based, fluorescence, HTS (AID 431); format: functional; conditions: Homo sapiens;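 also: cell line used: HPDE-C7K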
# Bcl-2-related protein A1 [17] = target: T5, Bcl-2-related protein A1 (Mus musculus, UniProt Q07440); assay: Bfl-1 binding inhibitors, SAR follow-up, biochemical, fluorescence polarization (AID 1070)
# T5 sequence (Q07440 whole entry): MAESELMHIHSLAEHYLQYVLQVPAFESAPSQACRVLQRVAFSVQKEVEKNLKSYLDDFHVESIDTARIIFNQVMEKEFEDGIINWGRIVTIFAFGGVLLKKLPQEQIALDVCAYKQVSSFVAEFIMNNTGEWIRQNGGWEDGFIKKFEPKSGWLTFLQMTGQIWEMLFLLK
# Bcl-2-related protein A1 [18] = target: T5, Bcl-2-related protein A1; assay: Bfl-1 inhibitors blocking BH3 peptide binding, confirmation, biochemical, TR-FRET, mouse Bfl-1 (AID 621);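 also: TR-FRET binding of GST-Bfl-1 to FITC-labelled Bid peptide via terbium antibody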
# [19] = target: T6, Polyadenylate-binding protein 1 (Homo sapiens, UniProt P11940); assay: PABP1 MLLE–PAM2 binding inhibitor potency, dose response, biochemical, fluorescence polarization, FITC-PAM2 peptide (AID 602259); format: functional; conditions: read-out: IC50_Mean
# T6 sequence (P11940 whole entry): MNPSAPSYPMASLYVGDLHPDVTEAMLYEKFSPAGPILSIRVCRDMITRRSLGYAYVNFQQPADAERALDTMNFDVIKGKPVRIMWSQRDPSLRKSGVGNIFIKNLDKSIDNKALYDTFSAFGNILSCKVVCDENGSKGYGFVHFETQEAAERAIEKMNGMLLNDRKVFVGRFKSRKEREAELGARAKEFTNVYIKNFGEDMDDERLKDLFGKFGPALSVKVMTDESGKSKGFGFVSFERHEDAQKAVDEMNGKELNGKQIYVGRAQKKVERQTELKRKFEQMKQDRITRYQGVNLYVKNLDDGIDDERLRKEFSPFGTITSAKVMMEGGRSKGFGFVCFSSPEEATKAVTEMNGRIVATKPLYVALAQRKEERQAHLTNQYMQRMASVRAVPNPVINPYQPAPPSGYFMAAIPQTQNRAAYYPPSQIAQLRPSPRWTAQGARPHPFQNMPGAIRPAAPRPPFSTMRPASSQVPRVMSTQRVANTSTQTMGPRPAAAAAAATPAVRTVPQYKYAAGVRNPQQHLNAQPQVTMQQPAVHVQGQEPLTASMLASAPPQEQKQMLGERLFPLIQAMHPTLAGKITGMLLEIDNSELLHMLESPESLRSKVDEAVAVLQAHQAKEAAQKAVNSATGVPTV
# [20] = target: T7, Microphthalmia-associated transcription factor (Homo sapiens, UniProt O75030); assay: TRPM1 promoter luciferase signal decrease, dose response, MITF inhibitor project, cell-based, SK-MEL-5, cherry-picked, set 3 (AID 493073); format: functional
# T7 sequence (O75030 whole entry): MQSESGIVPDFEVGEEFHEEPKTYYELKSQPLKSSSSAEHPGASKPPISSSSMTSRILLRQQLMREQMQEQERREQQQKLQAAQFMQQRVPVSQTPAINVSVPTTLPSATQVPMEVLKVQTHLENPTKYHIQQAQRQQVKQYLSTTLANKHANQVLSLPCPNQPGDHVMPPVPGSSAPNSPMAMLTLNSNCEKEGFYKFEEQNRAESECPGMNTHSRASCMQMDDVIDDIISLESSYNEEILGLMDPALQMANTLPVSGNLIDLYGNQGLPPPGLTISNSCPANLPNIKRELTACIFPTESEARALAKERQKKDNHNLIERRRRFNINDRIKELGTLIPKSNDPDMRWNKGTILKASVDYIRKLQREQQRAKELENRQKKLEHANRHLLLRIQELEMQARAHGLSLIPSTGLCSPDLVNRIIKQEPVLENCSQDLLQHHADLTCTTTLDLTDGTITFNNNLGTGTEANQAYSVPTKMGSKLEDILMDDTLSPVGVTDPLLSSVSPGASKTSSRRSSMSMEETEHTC
# [21] = target: E3 ubiquitin-protein ligase Mdm2 (Homo sapiens, UniProt Q00987); assay: enhancers of MDM2-luciferase reporter signal, concentration-effect titration, project on inhibitors of MDM2 ubiquitin ligase, cellular assay, luminescent readout, 384-well plate format (AID 1394); format: functional;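 also: MDM2 E3 inhibitors raise luminescence so EC50 is for signal enhancement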
# Chain of E3 ubiquitin-protein ligase Mdm2 (Q00987 whole entry): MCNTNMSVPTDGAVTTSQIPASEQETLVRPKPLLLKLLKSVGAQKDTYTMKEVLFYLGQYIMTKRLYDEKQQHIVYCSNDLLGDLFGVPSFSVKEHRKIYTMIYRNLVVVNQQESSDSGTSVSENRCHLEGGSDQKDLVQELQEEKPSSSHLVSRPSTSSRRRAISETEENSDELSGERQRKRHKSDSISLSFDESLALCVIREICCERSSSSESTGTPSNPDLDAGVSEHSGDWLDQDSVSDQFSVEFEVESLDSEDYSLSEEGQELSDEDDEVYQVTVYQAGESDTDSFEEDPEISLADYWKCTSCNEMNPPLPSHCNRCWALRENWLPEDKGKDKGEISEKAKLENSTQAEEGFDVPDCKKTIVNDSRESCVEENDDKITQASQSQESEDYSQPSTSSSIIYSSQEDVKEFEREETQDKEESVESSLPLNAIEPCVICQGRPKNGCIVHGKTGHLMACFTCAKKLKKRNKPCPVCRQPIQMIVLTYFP
# [22] = target: T6, Polyadenylate-binding protein 1; assay: PABP1 MLLE–PAM2 interaction inhibitors, dose response, miRNA deadenylation inhibitor project, biochemical, fluorescence polarization, Cy5-PAM2 peptide, secondary (AID 602260); format: functional; conditions: read-out: IC50_Mean
smiles,measurement,setting,value
Cc1nnc(SCC(=O)c2cc(C)n(C3CC3)c2C)s1,EC50,[1],7.62 µM (active)
same,EC50,[2],1.88 µM (active)
same,EC50,H4,> 120 µM (not active)
same,EC50,[3],< 0.1 µM (active)
same,EC50,[4],0.266 µM (active)
same,EC50,[5],0.594 µM (active)
COc1ccc(N2C(=O)C(Cl)=C(Nc3ccccc3O)C2=O)cc1,EC50,[6],24.5 µM (active)
same,IC50,Genome polyprotein,78 µM (active)
same,EC50,[7],> 300 µM (not active)
same,IC50,[8],53.6 µM (active)
CN1CCN(c2nc(-c3ccc(Br)cc3)nnc2-c2ccccc2)CC1,EC50,cells,0.008 µM (active)
same,EC50,[9],< 0.1 µM (active)
same,EC50,[10],> 60 µM (inconclusive)
O=C(Cc1ccc(-c2ccccc2)cc1)NC(c1ccccc1)c1ccccc1,IC50,[11],> 83.3 µM (inactive)
same,IC50,[12],> 109 µM (inactive)
O=C(COC(=O)Cc1ccc(F)cc1)NCc1ccco1,IC50,[11],> 83.2 µM (inactive)
same,IC50,[12],> 109 µM (inactive)
CC(=O)c1cccc(NC(=O)CN2C(=O)NC3(CCCCCCC3)C2=O)c1,IC50,Estrogen receptor,48.2 µM (not active)
same,IC50,Protein Tat,> 100 µM (active)
CCCSc1nnc(NC(=O)c2sc3nc(-c4cccs4)ccc3c2N)s1,CC50,[13],46 µM (active)
same,IC50,[8],167 µM (active)
CCc1sc(C(=O)NC2CCN(C)CC2)cc1Br,EC50,cells,0.026 µM (active)
same,EC50,[9],< 0.1 µM (active)
same,EC50,[10],> 60 µM (not active)
O=C(N/N=C/c1ccc(F)cc1)c1ccc(Br)cc1,IC50,[14],> 50 µM (active)
same,AC50,Cytochrome P450 2D6,3.55 µM (inconclusive)
same,AC50,Cytochrome P450 3A4,22.4 µM (inconclusive)
COC(=O)C(CC(=O)c1ccc(Br)cc1)n1ccnc1 (stereo not given),EC50,[15],15.5 µM (active)
same,EC50,[16],14.4 µM (active)
COc1ncccc1-c1nnn(-c2ccc(C)cc2)n1,IC50,Bcl-2-related protein A1 [17],> 100 µM (not active)
same,IC50,Bcl-2-related protein A1 [18],> 100 µM (not active)
COc1ccc(Cl)c2c3n[nH]c(SCc4ccccn4)nc-3nc12,EC50,[2],0.249 µM (active)
same,EC50,H4,25.2 µM (active)
same,EC50,[3],< 0.1 µM (active)
same,EC50,[4],0.287 µM (active)
same,EC50,[5],0.391 µM (active)
COC(=O)CSC1=C(C#N)C(=O)NC(c2ccccc2)S1 (stereo not given),IC50,[19],> 66 µM (inactive)
same,AC50,[20],7.06 µM (active)
same,EC50,[21],2.15 µM (active)
same,IC50,[22],> 66 µM (inactive)
